Tests used:
CYP3A4 = CYP3A4 (Homo sapiens, UniProt P08684); assay: Cytochrome P450 (CYP450) Inhibition Assay, CYP3A4 (Vivid fluorescence, BOMCC substrate); conditions: human, P450 Baculosomes (recombinant CYP3A4), probe BOMCC (Vivid substrate)
sodium channel = assay: Guanidine influx assay (14C-guanidine radiotracer flux, in vitro); type: cell-based, human or rat; conditions: guanidine influx assay using a known cell line that expresses a sodium channel
How it was run: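 Cells (human/rat Nav, endogenous or recombinant), ~100,000/well, 20-24 h 37 °C/5% CO2. Wash LNHBSS (150 mM choline Cl, HEPES, glucose). Add cpd + aconitine/14C-guanidine mix, RT. Wash, dry, scintillation count. IC50: 4-PL fit; selectivity as IC50 ratio vs reference channel, e.g. Nav1.5.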

Chain of CYP3A4 (P08684 whole entry): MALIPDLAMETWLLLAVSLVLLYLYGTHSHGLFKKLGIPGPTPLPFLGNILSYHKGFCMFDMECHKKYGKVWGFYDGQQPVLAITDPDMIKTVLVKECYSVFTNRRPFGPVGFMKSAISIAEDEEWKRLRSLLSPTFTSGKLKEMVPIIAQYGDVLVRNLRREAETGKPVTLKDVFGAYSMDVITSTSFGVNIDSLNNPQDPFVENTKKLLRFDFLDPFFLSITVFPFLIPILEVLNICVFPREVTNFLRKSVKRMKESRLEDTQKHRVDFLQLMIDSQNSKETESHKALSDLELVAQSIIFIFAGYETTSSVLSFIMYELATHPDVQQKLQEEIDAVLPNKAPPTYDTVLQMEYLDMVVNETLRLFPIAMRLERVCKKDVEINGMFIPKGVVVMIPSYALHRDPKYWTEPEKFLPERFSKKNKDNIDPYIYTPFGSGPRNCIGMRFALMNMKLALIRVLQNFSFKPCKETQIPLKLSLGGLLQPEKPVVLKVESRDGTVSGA

| SMILES | melting point | inhibition at 10 µM (CYP3A4) | IC50 (sodium channel; activity level class) | IC50 (sodium channel) |
| --- | --- | --- | --- | --- |
| O=C1N(Cc2nsc(Cl)n2)c2ccccc2C12COc1cc3c(cc12)OCO3 (stereo not drawn) [Example 6, 1′-[(5-chloro-1,2,4-thiadiazol-3-yl)methyl]spiro[furo[2,3-f][1,3]benzodioxole-7,3′-indol]-2′(1′H)-one] | 114 to 116 °C | > 50% | 1 to 100 nM | – |
| CSc1ccc(CN2C(=O)C3(COc4cc5c(cc43)OCO5)c3ccccc32)cc1 (stereo not drawn) [Example 4.79, 1′-[4-(methylsulfanyl)benzyl]spiro[furo[2,3-f][1,3]benzodioxole-7,3′-indol]-2′(1′H)-one] | 128 to 130 °C | > 50% | 1 to 100 nM | – |
| O=C1N(Cc2noc(C(F)F)n2)c2ccccc2C12COc1cc3c(cc12)OCO3 (stereo not drawn) [Example 11.22, 1-{[5-(difluoromethyl)-1,2,4-oxadiazol-3-yl]methyl}spiro[furo[2,3-f][1,3]benzodioxole-7,3′-indol]-2′(1′H)-one] | 137 to 139 °C | > 50% | – | 1 to 100 nM |
| Cn1c(=O)oc2cc3c(cc21)OCC31C(=O)Nc2ccccc21 (stereo not drawn) [Example 3.13, 3-methylspiro[furo[2,3-f][1,3]benzoxazole-7,3′-indole]-2,2′(1′H,3H)-dione] | > 250 °C | < 50% | 1000 to 10000 nM | – |
| Nc1ccc(CN2C(=O)C3(COc4cc5c(cc43)OCCO5)c3ccccc32)cn1 (stereo not drawn) [Example 37, 1′-[(6-aminopyridin-3-yl)methyl]-2,3-dihydrospiro[furo[2,3-g][1,4]benzodioxine-8,3′-indol]-2′(1′H)-one] | 117 to 119 °C | < 50% | – | 1 to 100 nM |
| Cc1nc2cc3c(cc2s1)C1(CO3)C(=O)N(Cc2ncc(Cl)n2C)c2ccccc21 (stereo not drawn) [Example 9.22, 1′-[(5-chloro-1-methyl-1H-imidazol-2-yl)methyl]-2-methylspiro[furo[2,3-f][1,3]benzothiazole-7,3′-indol]-2′(1′H)-one] | 177 to 178 °C | > 50% | 1000 to 10000 nM | – |
| Cn1c(=O)oc2cc3c(cc21)OCC31C(=O)N(Cc2ccc(C(F)(F)F)o2)c2ccccc21 (stereo not drawn) [Example 5.8, 3-methyl-1′-{[5-(trifluoromethyl)furan-2-yl]methyl}spiro[furo[2,3-f][1,3]benzoxazole-7,3′-indole]-2,2′(1′H,3H)-dione] | 198 to 199 °C | > 50% | 1000 to 10000 nM | – |
| CC(C)N1CCC(CN2C(=O)C3(COc4cc5c(cc43)OCCO5)c3ccccc32)CC1.Cl (stereo not drawn) [Example 11.100, 1′-{[1-(1-methylethyl)piperidin-4-yl]methyl}-2,3-dihydrospiro[furo[2,3-g][1,4]benzodioxine-8,3′-indol]-2′(1′H)-one hydrochloride] | 213 to 216 °C | > 50% | – | 1000 to 10000 nM |
| O=C1N(Cc2cccc(OCc3ccccc3)c2)c2ccccc2C12COc1cc3c(cc12)CCO3 (stereo not drawn) [Example 9.11, 1′-[3-(benzyloxy)benzyl]-5,6-dihydrospiro[benzo[1,2-b:5,4-b′]difuran-3,3′-indol]-2′(1′H)-one] | 66 to 68 °C | < 50% | 100 to 1000 nM | – |
| O=C1N(Cc2ncccc2C(F)(F)F)c2ccccc2C12COc1cc3[nH]ncc3cc12 (stereo not drawn) [Example 46.2, 1′-((3-(trifluoromethyl)pyridin-2-yl)methyl)-1,6-dihydrospiro[furo[3,2-f]indazole-5,3′-indolin]-2′-one] | 152 to 154 °C | > 50% | – | 100 to 1000 nM |
| O=C1N(Cc2ccc(C(F)(F)F)o2)c2ccccc2C12COc1cc(N[C@@H]3CCNC3)ccc12 (stereo partly drawn) [Example 11.52, 6-[(3R)-pyrrolidin-3-ylamino]-1′-{[5-(trifluoromethyl)furan-2-yl]methyl}spiro[1-benzofuran-3,3′-indol]-2′(1′H)-one] | 122 to 125 °C | > 50% | – | 100 to 1000 nM |
| O=C1N(Cc2ccc(C(F)(F)F)o2)c2c(C(F)(F)F)cccc2C12COc1cc3c(cc12)OCO3 (stereo not drawn) [Example 4.74, 7′-(trifluoromethyl)-1′-{[5-(trifluoromethyl)-2-furyl]methyl}spiro[furo[2,3-f][1,3]benzodioxole-7,3′-indol]-2′(1′H)-one] | 95 to 98 °C | > 50% | 100 to 1000 nM | – |
| Cc1noc2cc3c(cc12)C1(CO3)C(=O)N(Cc2ncccc2F)c2ccccc21 (stereo not drawn) [Example 9.57, 1′-[(3-fluoropyridin-2-yl)methyl]-3-methylspiro[furo[3,2-f][1,2]benzisoxazole-5,3′-indol]-2′(1′H)-one] | 167 to 169 °C | < 50% | – | 100 to 1000 nM |
| O=C1N(Cc2nnc(-c3ccccc3)o2)c2ccccc2C12COc1cc3c(cc12)OCO3 (stereo not drawn) [Example 6.6, 1′-[(5-phenyl-1,3,4-oxadiazol-2-yl)methyl]spiro[furo[2,3-f][1,3]benzodioxole-7,3′-indol]-2′(1′H)-one] | 158 to 160 °C | > 50% | 100 to 1000 nM | – |
| NC(=O)c1ccc2c(c1)C1(COc3cc4c(cc31)OCCO4)C(=O)N2Cc1ccccn1 (stereo not drawn) [Example 31, 2′-oxo-1′-(pyridin-2-ylmethyl)-1′,2,2′,3-tetrahydrospiro[furo[2,3-g][1,4]benzodioxine-8,3′-indole]-5′-carboxamide] | 220 to 222 °C | < 50% | – | 100 to 1000 nM |
| O=C1N(Cc2ccccn2)c2ccc(Br)cc2C12COc1cc3c(cc12)OCCO3 (stereo not drawn) [Example 2.49, 5′-bromo-1′-(pyridin-2-ylmethyl)-2,3-dihydrospiro[furo[2,3-g][1,4]-benzodioxine-8,3′-indol]-2′(1′H)-one] | > 250 °C | > 50% | 1 to 100 nM | – |
| O=C(NCCCN1C(=O)C2(COc3cc4c(cc32)CCO4)c2ccccc21)c1ccccc1OC(F)(F)F (stereo not drawn) [Example 13.11, N-[3-(2′-oxo-5,6-dihydrospiro[benzo[1,2-b:5,4-b′]difuran-3,3′-indol]-1′(2′H)-yl)propyl]-2-(trifluoromethoxy)benzamide] | 65 to 70 °C | > 50% | – | 100 to 1000 nM |
| Nc1noc2cc3c(cc12)C1(CO3)C(=O)N(Cc2ccccn2)c2ccccc21 (stereo not drawn) [Example 44.1, 3-amino-1′-(pyridin-2-ylmethyl)spiro[furo[3,2-f][1,2]benzisoxazole-5,3′-indol]-2′(1′H)-one] | 190 to 192 °C | < 50% | – | 100 to 1000 nM |
| Cn1c(=O)oc2cc3c(cc21)C1(CO3)C(=O)N(C[C@H]2CCCO2)c2ccccc21 (stereo partly drawn) [Example 4.60, 1-methyl-1′-[(2R)-tetrahydrofuran-2-ylmethyl]spiro[furo[3,2-f][1,3]benzoxazole-7,3′-indole]-2,2′(1′H,1′H)-dione] | > 250 °C | < 50% | 1000 to 10000 nM | – |
| COC(=O)c1cccc(CN2C(=O)C3(COc4cc5c(cc43)CCO5)c3ccccc32)c1 (stereo not drawn) [Example 9.15, methyl 3-[(2′-oxo-5,6-dihydrospiro[benzo[1,2-b:5,4-b′]difuran-3,3′-indol]-1′(2′H)-yl)methyl]benzoate] | 97 to 98 °C | > 50% | 1 to 100 nM | – |
| N#Cc1cc2c(cc1F)OCC21C(=O)N(Cc2ncccc2C(F)(F)F)c2ccccc21 (stereo not drawn) [Example 9.51, 6-fluoro-2′-oxo-1′-{[3-(trifluoromethyl)pyridin-2-yl]methyl}-1′,2′-dihydrospiro[1-benzofuran-3,3′-indole]-5-carbonitrile] | 209 to 211 °C | < 50% | – | 1000 to 10000 nM |
| COc1ccc(CN2C(=O)C3(COc4cc5onc(C)c5cc43)c3ccccc32)cc1 (stereo not drawn) [Example 2.6, 1′-(4-methoxybenzyl)-3-methylspiro[furo[3,2-f][1,2]benzisoxazole-5,3′-indol]-2′(1′H)-one] | 138 to 139 °C | > 50% | 1 to 100 nM | – |
| N#Cc1cccc(CN2C(=O)[C@@]3(COc4cc5c(cc43)OCCO5)c3ccccc32)c1 [Example 4.106, 3-{[(8S)-2′-oxo-2,3-dihydrospiro[furo[2,3-g][1,4]benzodioxine-8,3′-indol]-1′(2′H)-yl]methyl}benzonitrile] | 94 to 96 °C | < 50% | 1 to 100 nM | – |
| Cc1noc2cc3c(cc12)C1(CO3)C(=O)N(Cc2cccnc2)c2ccccc21 (stereo not drawn) [Example 9.25, 3-methyl-1′-(pyridin-3-ylmethyl)spiro[furo[3,2-f][1,2]benzisoxazole-5,3′-indol]-2′(1′H)-one] | 176 to 177 °C | > 50% | 1 to 100 nM | – |
| O=C1N(Cc2noc(C3CC3)n2)c2cccc(Cl)c2C12COc1cc3c(cc12)OCO3 (stereo not drawn) [Example 11.20, 4′-chloro-1′-[(5-cyclopropyl-1,2,4-oxadiazol-3-yl)methyl]spiro[furo[2,3-f][1,3]benzodioxole-7,3′-indol]-2′(1′H)-one] | 180 to 182 °C | > 50% | – | 1 to 100 nM |
| CN1CCOc2cc3c(cc21)C1(CO3)C(=O)N(Cc2ccc(C(F)(F)F)o2)c2ccccc21.Cl (stereo not drawn) [Example 2.28, 1-methyl-1′-{[5-(trifluoromethyl)furan-2-yl]methyl}-2,3-dihydro-1H-spiro[furo[3,2-g][1,4]benzoxazine-8,3′-indol]-2′(1′H)-one hydrochloride] | 105 °C (dec.) | > 50% | 100 to 1000 nM | – |
| Cc1noc2cc3c(cc12)C1(CO3)C(=O)N(Cc2ccc(-c3ccno3)cc2)c2ccccc21 (stereo not drawn) [Example 4.99, 1′-(4-isoxazol-5-ylbenzyl)-3-methylspiro[furo[3,2-f][1,2]benzisoxazole-5,3′-indol]-2′(1′H)-one] | 192 to 194 °C | < 50% | 100 to 1000 nM | – |

Source: US8263606B2 (Xenon Pharmaceuticals Inc., priority 2008, dated 2012)
